Biological target: T1, HMG-CoA synthase (Rattus norvegicus, UniProt P17425)
T1 construct: The livers from male Charles River CD rats (225-350 g) were homogenized; from tissue; host or cells: rat liver (male Charles River CD rats), 100,000 x g supernatant, ammonium sulfate and DEAE-52 fraction
T1 sequence (P17425 1-520): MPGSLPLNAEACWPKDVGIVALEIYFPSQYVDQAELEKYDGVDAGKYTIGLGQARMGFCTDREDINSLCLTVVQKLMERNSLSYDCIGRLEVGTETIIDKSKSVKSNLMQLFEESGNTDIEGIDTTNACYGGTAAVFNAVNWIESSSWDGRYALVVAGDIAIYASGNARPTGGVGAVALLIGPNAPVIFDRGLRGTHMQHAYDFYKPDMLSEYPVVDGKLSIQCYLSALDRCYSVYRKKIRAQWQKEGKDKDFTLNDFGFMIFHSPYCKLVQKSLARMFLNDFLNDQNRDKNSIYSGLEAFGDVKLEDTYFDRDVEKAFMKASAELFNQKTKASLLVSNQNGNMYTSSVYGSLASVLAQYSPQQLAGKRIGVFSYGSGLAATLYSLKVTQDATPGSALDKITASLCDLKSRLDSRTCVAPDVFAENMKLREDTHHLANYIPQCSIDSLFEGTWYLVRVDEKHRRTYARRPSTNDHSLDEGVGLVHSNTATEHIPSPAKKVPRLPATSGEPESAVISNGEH
Assay: HMG-CoA Synthase Inhibition Assay
Type: biochemical
Conditions: rat liver enzyme, 1-[14C]-acetyl-CoA incorporation
Procedure: The intrinisic HMG-CoA synthase inhibition activity of the compounds of this invention is measured by the standard in vitro protocol described below:
The livers from male Charles River CD rats (225-350 g) were homogenized in 0.25 M sucrose which was adjusted with phenylmethylsulfonylfluoride (PMSF) and N-p-tosyl-1-lysine chloromethyl ketone (TLCK) so that the final concentration of each was […], respectively. The homogenate was centrifuged at 15,000× g for 20 minutes, the supernatant filtered through a fine nylon screen to remove most of the fat layer and recentrifuged at 100,000× g for 1 hour. This supernatant was removed and 1 M potassium phosphate, dithiothreitol (DTT) and ethylene glycolbis(β-aminoethyl ether)-N,N,N',N'-tetraacetic acid (EGTA) added to give a final concentration of 0.1 M (pH 7.2), 0.5 mM and 0.1 mM, respectively. Solid ammonium sulfate was added to 50% saturation to the protein solution, it was centrifuged at 15,000× g and the supernatant discarded. This precipitated protein could be stored at -70° C. for at least one month with very little loss of activity. The ammonium sulfate precipitate was dissolved in an minimal amount of 0.06 M potassium phosphate buffer (pH 7.2) containing 0.5 mM dithiothreitol and 0.1 mM EGTA (referred to as 0.06 M phosphate buffer) and dialyzed overnight against 2 liters of the same buffer to remove the ammonium sulfate and to inactivate HMG-CoA lyase [Clinkenbeard, et al., J. Biol. Chem. 250, 3108-3116(1975)].
The dialyzed extract was added to a column of DEAE-52 (Whatman) which had been equilibrated with 0.06 M phosphate buffer (10 mg of protein in 1 ml bed volume of the resin). The DEAE-cellulose was eluted with 0.06 M phosphate buffer until the optical density at 280 nm was essentially zero. This fraction contained the β-ketoacetyl-CoA thiolase activity. The HMG-CoA synthase was eluted from the column with 0.1 M phosphate buffer (pH 7.2) containing 0.5 mM DTT and […] EGTA, and was virtually free of all thiolase activity. The protein was precipitated by the addition of ammonium sulfate to give 50% saturation. This solution was stirred for 10 minutes at 4° C. and the precipitate collected by centrifugation at 15,000 rpm for 10 minutes. The supernatant was discarded and the precipitate dissolved in a minimum of 0.06 M phosphate buffer, pH 7.2 (about 10 ml) and the enzyme stored at -80° C.
HMG-CoA Synthase Inhibition Assay
Enzyme protein (ca. 24 mg) was added to a solution containing […] Tris-HCl (pH 8.0), 11.7 μM MgCl2, 1.17 μM ethylenediaminetetraacetic acid (EDTA), 0.58 μM dithiothreitol, and the indicated concentrations of the test compound (added as a 2 mg/ml solution in dimethylsulfoxide). The incubation took place in a volume of 0.085 ml at 30° in a shaking water bath. After 5 minutes, […] of a solution containing acetoacetyl-CoA and 0.1 μCi of 1-[^14 C]-acetyl-CoA was added to give a final concentrations of 0.1 and 0.4 μM, respectively. The incubation was continued for 10 more minutes and the reaction stopped by the addition of […] of the assay mixture to 0.2 ml of 6N HCl in a glass scintillation vial. The vial was heated for 1 hour at 120° after which time 0.2 ml more of 6N HCl was again added to each vial and the heating continued for another hour. Following this, 1.0 ml of 0.9% saline was added to each vial and finally 10 ml of scintillation liquid. Radioactivity was determined in a Packard Tri-Carb liquid scintillation counter. Percent inhibition is calculated by the formula: [formula]
IC50 values were determined by plotting the log of the concentration of the test compound verses the percentage inhibition and fitting a straight line to the resulting data by using the least squares method.

| Structure (SMILES) | IC50 (Table II) [nM] | also measured |
| --- | --- | --- |
| CC[C@@H]1C(=O)N(S(=O)(=O)c2ccc(C)cc2)[C@@H]1COC(=O)c1ccc(C(=O)O)cc1 (relative stereo) [Table I x] | – | IC50 (Table I): 350 nM |
| CC[C@@H]1C(=O)N(S(=O)(=O)c2ccc(C)cc2)[C@@H]1COC(=O)c1ccc([N+](=O)[O-])cc1 (relative stereo) [Table I y] | – | IC50 (Table I): 28 nM |
| CCC[C@@H]1C(=O)N(S(=O)(=O)c2ccc(C)cc2)[C@@H]1COC(=O)c1ccc(OC)cc1 (relative stereo) [Table I z] | – | IC50 (Table I): 69.5 nM |
| CC[C@@H]1C(=O)N(S(=O)(=O)c2ccc(C)cc2)[C@@H]1COC(=O)/C=C/c1ccc(OC)cc1 (relative stereo) [Table II a] | 9.5 | – |
| CC[C@@H]1C(=O)N(S(=O)(=O)c2ccc(C)cc2)[C@@H]1COC(=O)/C=C/c1cccnc1 (relative stereo) [Table II h] | 31 | – |
| CC[C@@H]1C(=O)N(S(=O)(=O)c2ccc(C)cc2)[C@@H]1COC(=O)Cc1ccco1 (relative stereo) [Table II l] | 2400 | – |
| CC[C@@H]1C(=O)N(S(=O)(=O)c2ccc(C)cc2)[C@@H]1COC(=O)/C=C/c1ccco1 (relative stereo) [Table II m] | 250 | – |
| CC[C@@H]1C(=O)N(S(=O)(=O)c2ccc(C)cc2)[C@@H]1COC(=O)COc1ccccc1 (relative stereo) [Table II n] | 24 | – |
| CCOc1ccc(CC(=O)OC[C@H]2[C@@H](CC)C(=O)N2S(=O)(=O)c2ccc(C)cc2)cc1 (relative stereo) [Table II r] | 22 | – |
| CC[C@H]1C(=O)N(S(=O)(=O)c2ccc(C)cc2)[C@H]1COS(=O)(=O)c1ccc(C)cc1 (relative stereo) [Table III] | – | IC50 (Table III): 110 nM |
| CCC[C@H]1C(=O)N(S(=O)(=O)c2ccc(C)cc2)[C@@H]1C=Cc1ccccc1 (relative stereo) [Table IV a] | – | IC50 (Table IV): 1500 nM |
| CCC[C@H]1C(=O)N(S(=O)(=O)c2ccc(C)cc2)[C@H]1C=Cc1ccccc1 (relative stereo) [Table IV b] | – | IC50 (Table IV): 2200 nM |
| Cc1ccc(S(=O)(=O)N2C(=O)[C@H](CO)[C@H]2C=Cc2ccccc2)cc1 (relative stereo) [Table IV c] | – | IC50 (Table IV): 1100 nM |
| Cc1ccc(S(=O)(=O)N2C(=O)[C@H](CO)[C@@H]2C=Cc2ccccc2)cc1 (relative stereo) [Table IV d] | – | IC50 (Table IV): 1100 nM |
| CC[C@@H]1C(=O)N(S(=O)(=O)c2ccc(C)cc2)[C@H]1C(C)=Cc1ccccc1 (relative stereo) [Table IV e] | – | IC50 (Table IV): 50000 nM |
| CC[C@@H]1C(=O)N(S(=O)(=O)c2ccc(C)cc2)[C@@H]1C(C)=Cc1ccccc1 (relative stereo) [Table IV f] | – | IC50 (Table IV): 430 nM |
| CC[C@H]1C(=O)N(S(=O)(=O)c2ccc(C)cc2)[C@H]1CNc1ccc(C(=O)O)cc1 (relative stereo) [Table V a, (±) cis-3-Ethyl-4-hydroxycarbonylphenylaminomethyl-N-toluenesulfonyl-2-azetidinone] | – | IC50 (Table V): 9900 nM |
| CC[C@H]1C(=O)N(S(=O)(=O)c2ccc(C)cc2)[C@H]1CCc1ccccc1 (relative stereo) [Table V b] | – | IC50 (Table V): 86 nM |
| CC[C@@H]1C(=O)N(S(=O)(=O)c2ccc(C)cc2)[C@@H]1COC(=O)c1ccco1 [Table I gg] | – | IC50 (Table I): 11 nM |
| CC[C@@H]1C(=O)N(S(=O)(=O)c2ccc(C)cc2)[C@@H]1COC(=O)c1ccc(OC)cc1 [Table I i] | – | IC50 (Table I): 30 nM |
| CC[C@H]1C(=O)N(S(=O)(=O)c2ccc(C)cc2)[C@H]1COC(=O)c1ccc(OC)cc1 [Table I j] | – | IC50 (Table I): 200 nM |
| CC[C@@H]1C(=O)N(S(=O)(=O)c2ccc(C)cc2)[C@@H]1COC(=O)[C@H](OC)c1ccccc1 [Table II d, cis-(3S), (4S)-3-Ethyl-4-[(R)-α-methoxyphenylacetoxyl]methyl-N-toluenesulfonyl-2-azetidinone] | 18 | – |
| CO[C@H](C(=O)OC[C@@H]1CC(=O)N1S(=O)(=O)c1ccc(C)cc1)c1ccccc1 [Table II e] | 42 | – |
| CC[C@@H]1C(=O)N(S(=O)(=O)c2ccc(C)cc2)[C@@H]1COC(=O)/C=C/c1ccc(OC)cc1 [Table II k] | 11 | – |
| CCC1C(=O)N(S(=O)(=O)c2ccc(C)cc2)C1C(C)OC(=O)c1ccc(OC)cc1 (centres unmarked) [Table V c] | – | IC50 (Table V): 120 nM |
| CCC1C(=O)N(S(=O)(=O)c2ccc(C)cc2)C1C(C)Cc1ccccc1 (centres unmarked) [Table V d] | – | IC50 (Table V): 175 nM |
| CCC1C(=O)N(S(=O)(=O)c2ccc(C)cc2)C1C(OC(=O)c1ccc(OC)cc1)c1ccccc1 (centres unmarked) [Table V e] | – | IC50 (Table V): 2000 nM |
| CC(=O)OC(c1ccccc1)C(C)C1CC(=O)N1S(=O)(=O)c1ccc(C)cc1 (centres unmarked) [Table V f] | – | IC50 (Table V): 490 nM |
| CC(=O)OCC(C)C1CC(=O)N1S(=O)(=O)c1ccc(C)cc1 (centres unmarked) [Table V g] | – | IC50 (Table V): 290 nM |

Second part, led by results:

| IC50 (Table II) [nM] | Structure (SMILES) | also measured |
| --- | --- | --- |
| 2.1 | CCOc1ccc(CC(=O)OC[C@@H]2[C@H](CC)C(=O)N2S(=O)(=O)c2ccc(C)cc2)cc1C (relative stereo) [Table II o] | – |
| 10 | CC[C@@H]1C(=O)N(S(=O)(=O)c2ccc(C)cc2)[C@@H]1COC(=O)Cc1ccccn1 (relative stereo) [Table II p] | – |
| 42 | CC[C@H]1C(=O)N(S(=O)(=O)c2ccc(C)cc2)[C@H]1COC(=O)CSc1ccccc1 (relative stereo) [Table II q] | – |
| 20 | CC[C@H]1C(=O)N(S(=O)(=O)c2ccc(C)cc2)[C@H]1COC(=O)Cc1cc(OC)c(OC)c(OC)c1 (relative stereo) [Table II s] | – |
| 38 | CC[C@H]1C(=O)N(S(=O)(=O)c2ccc(C)cc2)[C@H]1COC(=O)/C=C/c1cc(OC)c(OC)c(OC)c1 (relative stereo) [Table II t] | – |
| 90 | CCCOc1c(Br)cc(/C=C/C(=O)OC[C@@H]2[C@H](CC)C(=O)N2S(=O)(=O)c2ccc(C)cc2)cc1OC (relative stereo) [Table II u] | – |
| 52 | CC[C@H]1C(=O)N(S(=O)(=O)c2ccc(C)cc2)[C@H]1COC(=O)Nc1ccc(C)cc1 (relative stereo) [Table II v] | – |
| 54 | CC[C@H]1C(=O)N(S(=O)(=O)c2ccc(C)cc2)[C@H]1COC(=O)NC1CCCCC1 (relative stereo) [Table II w] | – |
| 260 | CC[C@H]1C(=O)N(S(=O)(=O)c2ccc(C)cc2)[C@H]1COC(=O)Nc1ccc(C(F)(F)F)cc1 (relative stereo) [Table II x] | – |
| 30 | CC[C@H]1C(=O)N(S(=O)(=O)c2ccc(C)cc2)[C@H]1COC(=O)Cc1ccc(OC)c(OC)c1 (relative stereo) [Table II y] | – |
| 27 | CC[C@H]1C(=O)N(S(=O)(=O)c2ccc(C)cc2)[C@H]1COC(=O)/C=C/c1ccc(OC)c(OC)n1 (relative stereo) [Table II z] | – |
| 50 | CO[C@@H](C(=O)OC[C@@H]1CC(=O)N1S(=O)(=O)c1ccc(C)cc1)c1ccccc1 [Table II f] | – |
